Experimental data: patent publication US20060099568A1, “Signals and molecular species involved in senescence” (priority 2002, published 2006)

Key:
[1] = test system: human diploid fibroblasts; assay: growth factor-stimulated signaling events in human diploid fibroblasts; format: cell-based
Description: Foreskin fibroblasts were isolated as described by Boyce and Ham (1983). Cells were cultured in Dulbecco's modified Eagle's medium containing 10% fetal bovine serum and antibiotics. The primary culture contained smaller and more closely packed cells during the early stage of the culture. Cells with less than 10 passage were often considered as presenescent cells. As the cells were passaged, they became larger and they have a slower growth rate at passage 10-20. Cells from over 27 passages were completely growth-arrested and developed characteristic appearance designated previously as replicative senescence (Yeo et al., 2000a and b). In order to confirm that cells were senescent, we either examined the activity of beta-galactosidase or stained with X-gal, a membrane permeable substrate of the enzyme, which produces a blue insoluble product inside of the cells. The number of cells stained with X-gal increased with age and most of cells from passage 27-28 were stained. Cultures of over 23-28 passages have also shown the cessation of cell growth and senescence-like morphological changes, but only 70-80% of cells were stained with X-gal. These were termed “near-senescent”. Although the near-senescent cultures were not completely homogeneous, we compared the changes in these cultures to those in presenescent cultures of passage 6-10. In order to determine the growth factor-stimulated signaling events, cells were grown for 1-2 days to 60-70% sub-confluency in the culture medium, and then serum-starved to become quiescent by incubating with serum free medium (SFM) for 2 days. The quiescent cells were treated with various agonists, as described in the figure legends. To label cells, radioactive chemicals were added during the incubation with SFM.
Primary human diploid fibroblasts, isolated from newborn foreskins, were used to study the mechanism of reduced response to growth factor stimulation with aging. These cells were maintained and passaged as described previously (Yeo et al., 2000a). […] Compared to their presenescent counterparts, the senescent and near-senescent cells were larger and grew to lower density, as has been observed in other cell systems. Here the present inventors report upon the differential changes in the signaling events evoked by platelet-derived growth factor (PDGF) and lysophosphatidic acid (LPA). PDGF elicits signaling events over a concentration range of 10-100 ng/ml, whereas LPA stimulates the hydrolysis of phospholipids, Ca^2+ mobilization, and actin polymerization over a concentration range of 0.1-10 μg/ml in human diploid fibroblasts. In order to compare their cellular responses, we treated presenescent and senescent (or near-senescent) cells with PDGF and LPA at a maximally responsive dose of 50 ng/ml and 1 μg/ml, respectively.

[2] = test system: human diploid fibroblasts; assay: measurement of cytosolic free [Ca2+]i by confocal microscopy (fluo-3-AM); format: cell-based; conditions: PDGF 50 ng/ml, LPA 1 μg/ml
Description: FIG. 1 represents differential changes in growth factor-stimulated calcium release in senescent fibroblasts. Presenescent (passage 7: A and C) and senescent (passage 27: B and D) fibroblasts were grown on coverslips, serum-starved, and incubated with 4 μM fluo-3-AM in serum-free medium for 40 min. The stained cells were treated with […] of platelet-derived growth factor (A and B) or 1 μg/ml of lysophosphatidic acid (C and D) via a micro-perfusion system for the real-time measurement of signaling molecules, and laser scanning confocal microscopy. The scanned images were analyzed for changes in intracellular Ca^2+ at the single cell level and results expressed as relative fluorescence intensity (RFI).
[Ca^2+]i was measured using a laser scanning confocal microscope, as described by Junn et al. (2000). Quiescent fibroblasts grown on glass cover slips in a 6-well plate were stained with 4 μM of fluo-3-acetoxymethyl ester (fluo-3-AM) in phenol red-free medium without serum for 40 min and washed three times with the serum-free medium. Stained cells on each cover slip were mounted on a perfusion chamber (MPS-1000, Seoul Engineering, Korea), placed under the confocal laser scanning microscope (Carl Zeiss LSM 410), and scanned every 5 sec with a 488 nm excitation argon laser and a 515 nm long pass emission filter. Growth factors were added to the cells using an automatic pumping system (self-designed). All scanned images were analyzed for [Ca ^2+]i changes at the single cell level using “Time Series Program” for a real-time measurement of relative fluorescence intensity (RFI) which is installed in the Carl Zeiss LSM 410 confocal system.

[3] = test system: human diploid fibroblasts; assay: confocal microscopic measurement of actin polymerization (NBD-phallacidin); format: cell-based; conditions: PDGF 50 ng/ml, LPA 1 μg/ml
Description: FIG. 2 represents differential changes in growth factor-induced actin polymerization in senescent fibroblasts. […] The cells were fixed, permeabilized, and stained with NBD-phallacidin, then photographed.
F-actin was stained as described by Shin et al. (1999). Quiescent cells grown on glass cover slips in multi-well culture plates were treated with agonists for 30 min, and the cells were fixed with 3.7% paraformaldehyde in PBS for 30 min on ice. Following permeabilization with 0.2% Triton X-100 in PBS for 15 min on ice, the cells were stained with […] NBD-phallacidin in PBS for 30 min at RT. The stained cells were washed three times with PBS for 15 min and the cover slip was mounted on a slide glass with Gelvatol, which was prepared by mixing 100 ml of 23% polyvinyl alcohol in PBS with 50 ml glycerol. The cells were then observed under a confocal fluorescence microscope.

[4] = test system: phosphodiesterases (PDEs); assay: measurement of phosphodiesterase activity in LPA-treated cells; format: cell-based, human; conditions: 30 μg/ml LPA
Description: Subconfluent presenescent (passage 8, Pa 8) and near-senescent (passage 24, Pa 24) fibroblasts were serum-starved for 2 days and treated with 30 μg/ml LPA for the indicated times. The activities of adenylyl cyclase (A) and phosphodiesterase (B) were determined in the fresh membranes and total cell lysates as described in Materials and Methods. The enzyme activities were calculated as pmol/μg/min. The data represents an average of triplicate experiments.
Phosphodiesterase (PDE) assays were performed as described previously (Jang and Juhnn, 2001). 15 μg of cytosolic proteins were incubated in 200 μl of reaction mixture containing 50 mM Tris-HCl, pH 7.4, 3 mM MgCl2, 60 pmol cAMP, 1 mM 5′-AMP for 15 min at 37° C. After the reaction was stopped by adding 2.0 M perchloric acid, the amount of remaining cAMP was determined by cAMP binding assay.

lysophosphatidic acid [LPA]
concentration range stimulating hydrolysis of phospholipids, Ca2+ mobilization and actin polymerization ([1]; human diploid fibroblasts): 0.1 to 10 µg/mL | maximally responsive dose ([1]; presenescent and senescent (or near-senescent) cells): 1 µg/mL | cytosolic Ca2+ levels ([2]; presenescent fibroblasts (passage 7)): rapid increase | Ca2+ response in senescent cells relative to presenescent ([2]; senescent cells (passage 27)): not significantly | actin polymerization (stress fibers) ([3]; presenescent fibroblasts (passage 10)): enhanced the formation of stress fibers | agonist-induced actin polymerization in senescent cells ([3]; senescent cells (passage 27)): partially reduced | PDE activity ([4]; near-senescent cells): reduced | PDE activity ([4]; presenescent cells): increased
